Reference: patent US8362022B2, “Selective subtype alpha 2 adrenergic agents and methods for use thereof” (Allergan, Inc., priority 2008, dated 2013)
Where two headings read alike, the source gives them in different places.

Assays:
Assay type in all cases: cell-based
alpha 2C receptor = molecular target: T1, alpha 2C receptor (Homo sapiens, UniProt P18825); test: RSAT assay (Receptor Selection and Amplification Technology), Alpha 2C; conditions: for Intrinsic Activity efficacy Alpha 2C: value in parentheses, ratio of maximal effect to that of brimonidine
T1 construct: expressed in transfected cells; host or cells: NIH-3T3
T1 sequence (P18825 1-462): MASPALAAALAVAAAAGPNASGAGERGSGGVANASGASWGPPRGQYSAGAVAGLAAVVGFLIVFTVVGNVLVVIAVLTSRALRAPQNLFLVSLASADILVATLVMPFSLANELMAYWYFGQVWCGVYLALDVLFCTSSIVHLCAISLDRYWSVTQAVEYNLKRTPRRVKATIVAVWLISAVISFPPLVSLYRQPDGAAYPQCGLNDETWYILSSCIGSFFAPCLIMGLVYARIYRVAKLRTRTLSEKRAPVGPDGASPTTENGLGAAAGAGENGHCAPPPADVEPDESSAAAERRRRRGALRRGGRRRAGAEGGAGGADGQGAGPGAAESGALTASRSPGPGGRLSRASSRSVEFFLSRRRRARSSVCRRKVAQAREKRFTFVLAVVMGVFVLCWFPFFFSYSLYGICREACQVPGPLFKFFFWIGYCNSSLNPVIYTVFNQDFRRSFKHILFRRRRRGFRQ
Procedure: (§1) The RSAT assay measures a receptor-mediated loss of contact inhibition that results in selective proliferation of receptor-containing cells in a mixed population of confluent cells. The increase in cell number is assessed with an appropriate transfected marker gene such as β-galactosidase, the activity of which can be easily measured in a 96-well format. Receptors that activate the G protein, Gq, elicit this response. Alpha 2 receptors, which normally couple to Gi, activate the RSAT response when coexpressed with a hybrid Gq protein that has a Gi receptor recognition domain, called Gq/i5.
(§2) NIH-3T3 cells are plated at a density of 2×10^6 cells in 15 cm dishes and maintained in Dulbecco's modified Eagle's medium supplemented with 10% calf serum. One day later, cells are cotransfected by calcium phosphate precipitation with mammalian expression plasmids encoding p-SV-β-galactosidase (5-10 μg), receptor (1-2 μg) and G protein (1-2 μg). 40 μg salmon sperm DNA may also be included in the transfection mixture. […] Cells are thawed and 100 μl added to 100 μL aliquots of various concentrations of drugs in triplicate in 96-well dishes. Incubations continue 72-96 hr at 37° C. After washing with phosphate-buffered saline, β-galactosidase enzyme activity is determined by adding 200 μL of the chromogenic substrate (consisting of 3.5 mM o-nitrophenyl-β-D-galactopyranoside and 0.5% nonidet P-40 in phosphate buffered saline), incubating overnight at 30° C. and measuring optical density at 420 nm. The absorbance is a measure of enzyme activity, which depends on cell number and reflects a receptor-mediated cell proliferation. The efficacy or intrinsic activity is calculated as a ratio of the maximal effect of the drug to the maximal effect of a standard full agonist for each receptor subtype. Brimonidine, the chemical structure of which is shown below, is used as the standard agonist for the alpha 2B and alpha 2C receptors. […] NA stands for “not active” at concentrations less than 3-10 micromolar.

Alpha 1A = molecular target: T2, Alpha 1A (Homo sapiens, UniProt P35348); test: RSAT assay (Receptor Selection and Amplification Technology), Alpha 1A; conditions: value in parentheses, ratio of maximal effect of drug to maximal effect of standard full agonist
T2 sequence (P35348 1-466): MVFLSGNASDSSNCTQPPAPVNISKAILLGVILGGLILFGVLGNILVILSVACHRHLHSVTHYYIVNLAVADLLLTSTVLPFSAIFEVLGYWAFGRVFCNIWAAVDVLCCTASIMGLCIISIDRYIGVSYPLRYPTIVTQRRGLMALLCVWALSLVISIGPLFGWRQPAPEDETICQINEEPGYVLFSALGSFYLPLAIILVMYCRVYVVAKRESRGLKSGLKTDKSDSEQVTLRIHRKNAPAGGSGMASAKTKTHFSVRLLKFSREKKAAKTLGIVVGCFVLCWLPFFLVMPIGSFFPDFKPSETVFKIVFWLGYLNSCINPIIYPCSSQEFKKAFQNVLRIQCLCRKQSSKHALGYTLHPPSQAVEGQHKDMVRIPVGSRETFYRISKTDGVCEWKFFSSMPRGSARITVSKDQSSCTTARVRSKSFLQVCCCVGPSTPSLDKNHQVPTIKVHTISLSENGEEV
Procedure: as §1, §2

alpha 2B receptor = molecular target: T3, alpha 2B receptor (Homo sapiens, UniProt P18089); test: RSAT assay (Receptor Selection and Amplification Technology), Alpha 2B; conditions: for Intrinsic Activity efficacy Alpha 2B: value in parentheses, ratio of maximal effect to that of brimonidine
T3 construct: expressed in transfected cells; host or cells: NIH-3T3
T3 sequence (P18089 1-450): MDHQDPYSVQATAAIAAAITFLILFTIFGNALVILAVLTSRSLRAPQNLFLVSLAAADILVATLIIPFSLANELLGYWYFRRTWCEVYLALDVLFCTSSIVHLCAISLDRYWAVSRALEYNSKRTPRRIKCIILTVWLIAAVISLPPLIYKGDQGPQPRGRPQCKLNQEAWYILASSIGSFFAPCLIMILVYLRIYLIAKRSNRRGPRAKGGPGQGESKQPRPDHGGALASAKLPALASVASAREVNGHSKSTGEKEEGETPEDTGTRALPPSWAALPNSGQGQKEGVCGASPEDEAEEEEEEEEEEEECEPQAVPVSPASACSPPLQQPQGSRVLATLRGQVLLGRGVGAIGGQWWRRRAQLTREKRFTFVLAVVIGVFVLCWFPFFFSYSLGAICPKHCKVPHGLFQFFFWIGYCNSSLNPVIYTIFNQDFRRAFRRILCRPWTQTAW
Procedure: as §1, §2

[1] = RSAT, transfected NIH-3T3 cells with Gq/i5, NA = not active at concentrations less than 10 micromolar, read-out: potency nM (EC50) Alpha 2C
[2] = RSAT, transfected NIH-3T3 cells with Gq/i5, Table 1, read-out: potency nM (EC50) Alpha 2B

SMILES	EC50 (alpha 2C receptor; [1])	Intrinsic Activity efficacy Alpha 2C (alpha 2C receptor; RSAT)	Intrinsic Activity efficacy Alpha 1A (Alpha 1A)	EC50 (alpha 2B receptor; [2])	Intrinsic Activity efficacy Alpha 2B (alpha 2B receptor; RSAT, Table 1)	EC50 (alpha 2C receptor)	EC50 (alpha 2B receptor)
c1ccc(C(Cc2ccncc2)/N=C2/NCCS2)cc1 (centres unmarked) [Compound 2, 1-Phenyl-2-(pyridin-4-yl)-N-(thiazolidin-2-ylidene)ethanamine]	525 nM	0.72	1.45	10 nM	1.18	–	–
Clc1cccc(C(Cc2ccncc2)/N=C2/NCCO2)c1Cl (centres unmarked) [Compound 17, 1-(2,3-Dichlorophenyl)-N-(oxazolidin-2-ylidene)-2-(pyridin-4-yl)ethanamine]	30 nM	0.65	1.3	5 nM	1.15	–	–
c1ccc([C@@H](Cc2ccncc2)/N=C2/NCCO2)cc1 [Compound 30, R—N-(oxazolidin-2-ylidene)-1-phenyl-2-(pyridin-4-yl)ethanamine]	–	0.78	1.1	–	1.16	24 nM	6 nM
Clc1cccc(C(Cc2ccncc2)/N=C2/NCCS2)c1Cl (centres unmarked) [Compound 18, 1-(2,3-Dichlorophenyl)-2-(pyridin-4-yl)-N-(thiazolidin-2-ylidene)ethanamine]	21 nM	0.6	1.0	2 nM	1.1	–	–
Cc1cccc(C(Cc2ccncc2)/N=C2/NCCO2)c1C (centres unmarked) [Compound 6, 1-(2,3-Dimethylphenyl)-N-(oxazolidin-2-ylidene)-2-(pyridin-4-yl)ethanamine]	80 nM	0.68	0.88	2.1 nM	1.1	–	–
c1ccc([C@@H](Cc2ccncc2)/N=C2/NCCS2)cc1 [Compound 31, R-1-phenyl-2-(pyridin-4-yl)-N-(thiazolidin-2-ylidene)ethanamine]	6.1 nM	1.0	1.1	21 nM	0.64	–	–
c1ccc(C(Cc2ccncc2)/N=C2/NCCO2)cc1 (centres unmarked) [Compound 1, N-(Oxazolidin-2-ylidene)-1-phenyl-2-(pyridin-4-yl)ethanamine]	132 nM	0.67	1.20	–	1.09	–	8 nM
c1ccc(C(Cc2cnccn2)/N=C2/NCCS2)cc1 (centres unmarked) [Compound 16, 1-Phenyl-2-(pyrazin-2-yl)-N-(thiazolidin-2-ylidene)ethanamine]	100 nM	0.5	1.1	170 nM	0.97	–	–
Fc1cccc(C(Cc2ccncc2)N=C2NCCN2)c1 (centres unmarked) [Compound 25, 1-(3-Fluorophenyl)-N-(imidazolidin-2-ylidene)-2-(pyridin-4-yl)ethanamine]	–	1.03	0.97	–	0.68	16 nM	25 nM
COc1ccccc1C(Cc1cccnc1)/N=C1/NCCO1 (centres unmarked) [Compound 13, 1-(2-Methoxyphenyl)-N-(oxazolidin-2-ylidene)-2-(pyridin-3-yl)ethanamine]	23 nM	0.66	1.12	9 nM	0.62	–	–
Fc1cccc(C(Cc2ccncc2)/N=C2/NCCO2)c1 (centres unmarked) [Compound 24, 1-(3-Fluorophenyl)-N-(oxazolidin-2-ylidene)-2-(pyridin-4-yl)ethanamine]	237 nM	0.93	1.1	14.3 nM	0.98	–	–
COc1ccccc1C(Cc1cccnc1)/N=C1/NCCS1 (centres unmarked) [Compound 11, 1-(2-Methoxyphenyl)-2-(pyridin-3-yl)-N-(thiazolidin-2-ylidene)ethanamine]	17 nM	0.86	1.6	17 nM	0.78	–	–
Cc1cccc(C(Cc2ccncc2)/N=C2/NCCS2)c1C (centres unmarked) [Compound 4, 1-(2,3-Dimethylphenyl)-2-(pyridin-4-yl)-N-(thiazolidin-2-ylidene)ethanamine]	14 nM	0.63	0.77	3.8 nM	1.1	–	–
